Active and inactive are the calls of the source. No cut-off for these calls is given here. Bridge positions count the residues as written; N and C are the ends. Peptide text beside a SMILES is read from it.
Columns and labels:
[1] = target: T1, Mas-related G-protein coupled receptor member B2 (Mus musculus) (UniProt Q3KNA1); test: Agonist activity at mouse Mrgprb2 expressed in HEK293 cells assessed as induction of G(o) dissociation by measuring luminescent decay at 32 uM by NanoBiT-G-protein dissociation assay; assay type: cell-based; conditions: filed as agonist
T1 sequence (whole entry): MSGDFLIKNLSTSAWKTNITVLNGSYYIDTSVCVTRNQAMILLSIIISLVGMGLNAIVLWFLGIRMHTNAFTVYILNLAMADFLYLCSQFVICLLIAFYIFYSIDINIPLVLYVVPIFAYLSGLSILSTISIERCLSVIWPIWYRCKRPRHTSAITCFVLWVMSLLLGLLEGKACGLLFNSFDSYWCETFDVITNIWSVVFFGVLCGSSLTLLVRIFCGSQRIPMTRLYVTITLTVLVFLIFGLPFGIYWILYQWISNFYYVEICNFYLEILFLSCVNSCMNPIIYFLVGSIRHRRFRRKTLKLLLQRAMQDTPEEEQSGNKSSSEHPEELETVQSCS

[2] = target: T2, Mas-related G-protein coupled receptor member X2 (Homo sapiens, UniProt Q96LB1); test: Agonistic activity at MRGPRX2 (unknown origin)
T2 sequence (Q96LB1 whole entry): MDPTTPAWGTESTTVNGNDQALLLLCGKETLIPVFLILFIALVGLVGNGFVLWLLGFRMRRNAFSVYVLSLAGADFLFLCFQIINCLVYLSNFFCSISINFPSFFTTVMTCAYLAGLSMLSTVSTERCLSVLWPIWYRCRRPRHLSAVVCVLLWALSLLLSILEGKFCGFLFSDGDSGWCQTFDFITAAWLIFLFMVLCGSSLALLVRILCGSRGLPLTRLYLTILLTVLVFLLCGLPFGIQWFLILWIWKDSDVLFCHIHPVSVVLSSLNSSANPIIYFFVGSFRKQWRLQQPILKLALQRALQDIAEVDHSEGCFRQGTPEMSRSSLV

[3] = target: T3, Mas-related G-protein coupled receptor member X2 (Homo sapiens) (UniProt Q96LB1); test: Agonist activity at MRGPRX2 (unknown origin) expressed in HEK293 cells assessed as induction of G(o) dissociation by measuring luminescent decay at 32 uM by NanoBiT-G-protein dissociation assay; assay type: functional, cell-based; conditions: filed as agonist
T3 sequence (whole entry): T2 sequence (Q96LB1 whole entry)

[4] = target: T1, Mas-related G-protein coupled receptor member B2 (Mus musculus); test: Agonist activity at mouse Mrgprb2 expressed in HEK293 cells assessed as induction of G(o) dissociation by measuring luminescent decay at 10 uM by NanoBiT-G-protein dissociation assay; assay type: cell-based; conditions: filed as agonist
[5] = target: T3, Mas-related G-protein coupled receptor member X2 (Homo sapiens); test: Agonist activity at MRGPRX2 (unknown origin) expressed in HEK293 cells assessed as induction of G(o) dissociation by measuring luminescent decay at 10 uM by NanoBiT-G-protein dissociation assay; assay type: functional, cell-based; conditions: filed as agonist
[6] = species on record: Mus musculus; test: Increase in number of nociceptive behaviors in mouse at 30 ug, it; assay type: functional; conditions: dose 30.0 µg
[7] = species on record: Mus musculus; test: Increase in number of scratching behaviors in mouse at 3 to 300 ug, id; assay type: functional; conditions: dose 3-300 µg, DDE = dose-dependent effect
[8] = species on record: Mus musculus; test: Increase in number of nociceptive behaviors in mouse at 3 to 30 ug, it; assay type: functional; conditions: dose 3-30 µg, DDE = dose-dependent effect

Row | Compound | Activity [1] | EC50 [2] | Activity [3] | Activity [4] | Activity [5] | Activity [6] | Activity [7] | Activity [8]
1 | CN1CC[C@]2(c3cccc(O)c3)Cc3nc4ccccc4cc3C[C@@H]2C1 | Active | 290 nM | Active | – | – | – | – | –
2 | C[C@@H](O)[C@@H]1NC(=O)[C@H](CCCCN)NC(=O)[C@H](Cc2c[nH]c3ccccc23)NC(=O)[C@H](Cc2ccccc2)NC(=O)[C@H](Cc2ccccc2)NC(=O)[C@H](CC(N)=O)NC(=O)[C@H](CCCCN)NC(=O)[C@@H](NC(=O)[C@@H]2CCCN2)CSSC[C@@H](C(=O)N[C@@H](CCCCN)C(=O)O)NC(=O)[C@H](CO)NC(=O)[C@H](CO)NC(=O)[C@H](Cc2ccccc2)NC1=O (H-PCKNFFWKTFSSCK-OH; disulfide 2-13) | – | – | – | Active | Active | – | – | –
3 | CN1CC[C@]23Cc4nc5ccccc5cc4C[C@@]2(O)[C@H]1Cc1ccc(O)cc13 | Active | – | Active | – | – | Active | Dde | Dde

From ChEMBL document CHEMBL5131412, “Synthesis of unnatural morphinan compounds to induce itch-like behaviors in mice: Towards the development of MRGPRX2 selective ligands” (Bioorg Med Chem Lett, 2022)
